Data from ChEMBL document CHEMBL1145633, “Inhibitors of the tyrosine kinase EphB4. Part 1: Structure-based design and optimization of a series of 2,4-bis-anilinopyrimidines” (Bioorg Med Chem Lett, 2008).
In brackets after ≈: the same amount, converted by molar mass. Blank lines part the entries; values can stand above or below the compound they belong to.

Tests used:
[1] = target: T1, Ephrin type-B receptor 4 (Homo sapiens, UniProt P54760); assay: Inhibition of EphB4
T1 sequence (P54760 whole entry): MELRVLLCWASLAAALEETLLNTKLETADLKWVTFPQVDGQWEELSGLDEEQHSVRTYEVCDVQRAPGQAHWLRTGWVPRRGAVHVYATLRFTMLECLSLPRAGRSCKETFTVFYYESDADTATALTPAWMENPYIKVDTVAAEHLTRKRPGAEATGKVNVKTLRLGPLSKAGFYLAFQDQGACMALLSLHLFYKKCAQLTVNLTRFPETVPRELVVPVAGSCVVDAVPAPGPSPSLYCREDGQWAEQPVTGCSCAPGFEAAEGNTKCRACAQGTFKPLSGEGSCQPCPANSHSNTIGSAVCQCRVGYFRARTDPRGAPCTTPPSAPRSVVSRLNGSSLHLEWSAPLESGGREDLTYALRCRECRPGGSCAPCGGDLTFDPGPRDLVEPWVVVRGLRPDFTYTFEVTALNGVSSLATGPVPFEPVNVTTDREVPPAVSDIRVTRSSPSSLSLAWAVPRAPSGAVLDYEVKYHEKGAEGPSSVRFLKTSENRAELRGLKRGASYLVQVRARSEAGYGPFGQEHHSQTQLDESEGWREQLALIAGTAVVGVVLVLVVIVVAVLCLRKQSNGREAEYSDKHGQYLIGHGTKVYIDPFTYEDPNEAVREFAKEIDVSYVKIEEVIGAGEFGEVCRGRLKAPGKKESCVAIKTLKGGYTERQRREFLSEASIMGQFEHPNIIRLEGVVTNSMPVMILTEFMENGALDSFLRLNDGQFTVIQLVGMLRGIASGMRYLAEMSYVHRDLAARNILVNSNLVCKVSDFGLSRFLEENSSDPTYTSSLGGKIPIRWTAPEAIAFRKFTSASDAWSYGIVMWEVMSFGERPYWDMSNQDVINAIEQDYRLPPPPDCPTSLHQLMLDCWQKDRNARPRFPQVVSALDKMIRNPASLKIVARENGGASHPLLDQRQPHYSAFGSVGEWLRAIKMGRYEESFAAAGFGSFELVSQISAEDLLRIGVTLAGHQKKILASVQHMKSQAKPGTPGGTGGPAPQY

[2] = Inhibition of p38
[3] = target: Tyrosine-protein kinase CSK (Homo sapiens, UniProt P41240); assay: Inhibition of CSK
[4] = target: T2, Serine/threonine-protein kinase Chk1 (Homo sapiens, UniProt O14757); assay: Inhibition of CHK1
T2 sequence (O14757 whole entry): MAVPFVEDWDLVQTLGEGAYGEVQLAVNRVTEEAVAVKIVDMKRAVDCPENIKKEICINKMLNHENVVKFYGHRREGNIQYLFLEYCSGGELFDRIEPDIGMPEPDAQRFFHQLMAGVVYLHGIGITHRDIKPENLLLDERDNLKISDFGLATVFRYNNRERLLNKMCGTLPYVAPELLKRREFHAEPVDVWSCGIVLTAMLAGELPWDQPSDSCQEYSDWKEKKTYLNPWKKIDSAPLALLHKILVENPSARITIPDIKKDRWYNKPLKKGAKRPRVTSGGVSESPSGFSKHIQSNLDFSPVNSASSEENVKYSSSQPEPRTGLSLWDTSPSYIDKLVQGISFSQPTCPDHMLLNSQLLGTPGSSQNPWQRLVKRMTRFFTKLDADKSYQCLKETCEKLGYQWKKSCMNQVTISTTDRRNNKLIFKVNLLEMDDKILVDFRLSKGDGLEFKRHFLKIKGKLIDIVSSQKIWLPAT

[5] = target: Vascular endothelial growth factor receptor 2 (Homo sapiens, UniProt P35968); assay: Inhibition of KDR
Sequence of Vascular endothelial growth factor receptor 2 (P35968 whole entry): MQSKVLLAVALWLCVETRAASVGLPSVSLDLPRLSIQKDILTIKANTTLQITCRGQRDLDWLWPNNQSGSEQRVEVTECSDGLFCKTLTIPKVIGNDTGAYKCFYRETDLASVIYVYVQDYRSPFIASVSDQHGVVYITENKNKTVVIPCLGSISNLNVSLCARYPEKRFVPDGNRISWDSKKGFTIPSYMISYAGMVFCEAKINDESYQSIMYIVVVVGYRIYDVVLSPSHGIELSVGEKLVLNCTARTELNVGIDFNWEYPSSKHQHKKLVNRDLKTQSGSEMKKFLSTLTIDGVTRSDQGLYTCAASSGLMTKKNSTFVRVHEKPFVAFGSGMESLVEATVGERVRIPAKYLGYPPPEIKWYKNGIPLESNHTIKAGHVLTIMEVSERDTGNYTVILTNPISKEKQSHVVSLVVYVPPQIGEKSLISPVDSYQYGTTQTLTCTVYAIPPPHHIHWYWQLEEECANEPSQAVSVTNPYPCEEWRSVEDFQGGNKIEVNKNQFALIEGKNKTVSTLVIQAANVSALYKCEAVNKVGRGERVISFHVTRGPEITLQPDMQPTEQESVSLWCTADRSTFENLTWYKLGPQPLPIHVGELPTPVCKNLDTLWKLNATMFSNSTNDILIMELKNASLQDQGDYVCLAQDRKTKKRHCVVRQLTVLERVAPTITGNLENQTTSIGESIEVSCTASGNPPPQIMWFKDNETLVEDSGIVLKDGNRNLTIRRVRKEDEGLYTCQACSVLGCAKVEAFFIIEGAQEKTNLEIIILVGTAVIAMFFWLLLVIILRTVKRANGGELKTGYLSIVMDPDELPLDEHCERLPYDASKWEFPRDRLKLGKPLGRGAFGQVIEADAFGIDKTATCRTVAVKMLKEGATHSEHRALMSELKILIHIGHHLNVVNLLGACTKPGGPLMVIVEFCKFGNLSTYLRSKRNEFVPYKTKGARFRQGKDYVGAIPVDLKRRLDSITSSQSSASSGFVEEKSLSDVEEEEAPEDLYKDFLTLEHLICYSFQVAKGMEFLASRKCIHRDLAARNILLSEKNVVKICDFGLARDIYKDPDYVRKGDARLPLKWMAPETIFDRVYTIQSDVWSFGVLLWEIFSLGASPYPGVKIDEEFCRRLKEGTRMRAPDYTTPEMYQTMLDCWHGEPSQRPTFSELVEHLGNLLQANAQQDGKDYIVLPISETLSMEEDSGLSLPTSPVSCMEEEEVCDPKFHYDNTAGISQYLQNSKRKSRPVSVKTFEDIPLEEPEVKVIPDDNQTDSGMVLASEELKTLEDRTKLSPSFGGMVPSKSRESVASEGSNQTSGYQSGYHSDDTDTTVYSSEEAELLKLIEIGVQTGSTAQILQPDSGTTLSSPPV

[6] = Inhibition of PKA
[7] = Inhibition of JNK
[8] = Lipophilicity, Log D of compound at pH 7.4; assay type: physicochemical; details: buffer
[9] = Clearance in Han Wistar rat at 5 umol/kg, po or 0.5 umol/kg, iv; assay type: ADME, organism-based; details: in vivo
[10] = Aqueous solubility of compound at pH 7.4; assay type: physicochemical
[11] = target: Serine/threonine-protein kinase PLK1 (Homo sapiens, UniProt P53350); assay: Inhibition of PLK
Sequence of Serine/threonine-protein kinase PLK1 (P53350 whole entry): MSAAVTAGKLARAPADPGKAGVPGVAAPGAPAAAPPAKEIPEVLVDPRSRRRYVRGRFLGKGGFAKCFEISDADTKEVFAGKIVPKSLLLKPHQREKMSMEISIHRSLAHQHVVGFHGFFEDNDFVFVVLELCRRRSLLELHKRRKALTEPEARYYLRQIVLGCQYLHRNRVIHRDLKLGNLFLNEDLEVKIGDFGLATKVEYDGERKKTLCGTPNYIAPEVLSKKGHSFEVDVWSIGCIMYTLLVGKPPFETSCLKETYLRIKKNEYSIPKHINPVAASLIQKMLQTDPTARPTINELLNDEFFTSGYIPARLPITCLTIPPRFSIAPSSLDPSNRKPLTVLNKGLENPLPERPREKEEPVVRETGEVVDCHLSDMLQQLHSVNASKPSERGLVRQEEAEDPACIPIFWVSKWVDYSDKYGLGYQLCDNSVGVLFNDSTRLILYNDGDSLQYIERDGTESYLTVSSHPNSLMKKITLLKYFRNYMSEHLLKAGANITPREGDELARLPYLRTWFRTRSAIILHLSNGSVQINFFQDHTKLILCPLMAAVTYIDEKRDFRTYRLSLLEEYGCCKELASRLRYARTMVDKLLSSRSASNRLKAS

[12] = target: T3, Tyrosine-protein kinase JAK3 (Homo sapiens, UniProt P52333); assay: Inhibition of JAK3
T3 sequence (P52333 whole entry): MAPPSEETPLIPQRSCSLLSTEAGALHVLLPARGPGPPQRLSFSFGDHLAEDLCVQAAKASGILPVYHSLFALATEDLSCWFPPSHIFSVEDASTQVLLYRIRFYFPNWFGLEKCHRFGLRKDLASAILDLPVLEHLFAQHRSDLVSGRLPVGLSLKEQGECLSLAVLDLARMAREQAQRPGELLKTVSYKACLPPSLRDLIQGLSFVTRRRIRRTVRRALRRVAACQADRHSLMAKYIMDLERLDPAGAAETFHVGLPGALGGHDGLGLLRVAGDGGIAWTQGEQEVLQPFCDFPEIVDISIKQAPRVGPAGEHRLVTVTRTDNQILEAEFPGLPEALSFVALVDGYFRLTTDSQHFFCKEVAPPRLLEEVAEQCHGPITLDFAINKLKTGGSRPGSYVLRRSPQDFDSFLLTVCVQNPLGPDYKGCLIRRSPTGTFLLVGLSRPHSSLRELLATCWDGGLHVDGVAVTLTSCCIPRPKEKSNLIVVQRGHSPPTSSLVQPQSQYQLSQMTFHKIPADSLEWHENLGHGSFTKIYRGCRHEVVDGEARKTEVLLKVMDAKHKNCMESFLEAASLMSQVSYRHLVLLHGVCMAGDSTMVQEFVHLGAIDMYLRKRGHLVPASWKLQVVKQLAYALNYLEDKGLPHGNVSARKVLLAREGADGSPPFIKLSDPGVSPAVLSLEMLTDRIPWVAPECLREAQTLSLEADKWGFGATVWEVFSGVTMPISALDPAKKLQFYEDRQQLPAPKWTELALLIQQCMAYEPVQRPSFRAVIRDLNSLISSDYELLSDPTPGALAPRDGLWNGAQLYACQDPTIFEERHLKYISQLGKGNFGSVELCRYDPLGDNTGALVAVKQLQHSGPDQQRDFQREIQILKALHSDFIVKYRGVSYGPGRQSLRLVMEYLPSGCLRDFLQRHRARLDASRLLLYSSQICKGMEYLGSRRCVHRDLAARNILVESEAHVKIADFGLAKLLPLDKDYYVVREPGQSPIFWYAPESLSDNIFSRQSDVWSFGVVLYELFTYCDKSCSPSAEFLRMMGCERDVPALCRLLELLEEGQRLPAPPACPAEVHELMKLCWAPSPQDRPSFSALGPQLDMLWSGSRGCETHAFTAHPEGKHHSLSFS

[13] = Half life in Han Wistar rat at 5 umol/kg, po; assay type: ADME, organism-based; details: in vivo
[14] = target: Insulin-like growth factor 1 receptor (Homo sapiens, UniProt P08069); assay: Inhibition of IGF
Sequence of Insulin-like growth factor 1 receptor (P08069 31-736 limits assumed): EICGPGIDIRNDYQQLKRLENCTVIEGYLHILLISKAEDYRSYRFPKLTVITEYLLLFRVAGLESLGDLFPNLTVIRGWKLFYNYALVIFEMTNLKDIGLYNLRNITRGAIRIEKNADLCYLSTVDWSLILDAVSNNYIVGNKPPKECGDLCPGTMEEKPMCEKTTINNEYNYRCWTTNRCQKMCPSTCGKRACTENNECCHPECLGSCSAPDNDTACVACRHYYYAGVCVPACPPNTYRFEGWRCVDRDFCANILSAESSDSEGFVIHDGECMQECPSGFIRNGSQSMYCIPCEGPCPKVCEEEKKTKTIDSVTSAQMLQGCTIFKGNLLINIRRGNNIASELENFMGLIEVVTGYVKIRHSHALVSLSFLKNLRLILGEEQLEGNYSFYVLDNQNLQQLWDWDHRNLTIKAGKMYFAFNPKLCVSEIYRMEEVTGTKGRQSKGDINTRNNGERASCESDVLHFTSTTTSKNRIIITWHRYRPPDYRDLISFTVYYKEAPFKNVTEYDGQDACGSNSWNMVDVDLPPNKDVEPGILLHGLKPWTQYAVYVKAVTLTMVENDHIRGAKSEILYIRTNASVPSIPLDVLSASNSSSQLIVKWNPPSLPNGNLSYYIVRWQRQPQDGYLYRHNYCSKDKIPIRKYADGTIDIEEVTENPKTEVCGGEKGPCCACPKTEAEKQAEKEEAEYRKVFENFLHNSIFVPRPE
Sequence of Insulin-like growth factor 1 receptor (P08069 741-1367 limits assumed): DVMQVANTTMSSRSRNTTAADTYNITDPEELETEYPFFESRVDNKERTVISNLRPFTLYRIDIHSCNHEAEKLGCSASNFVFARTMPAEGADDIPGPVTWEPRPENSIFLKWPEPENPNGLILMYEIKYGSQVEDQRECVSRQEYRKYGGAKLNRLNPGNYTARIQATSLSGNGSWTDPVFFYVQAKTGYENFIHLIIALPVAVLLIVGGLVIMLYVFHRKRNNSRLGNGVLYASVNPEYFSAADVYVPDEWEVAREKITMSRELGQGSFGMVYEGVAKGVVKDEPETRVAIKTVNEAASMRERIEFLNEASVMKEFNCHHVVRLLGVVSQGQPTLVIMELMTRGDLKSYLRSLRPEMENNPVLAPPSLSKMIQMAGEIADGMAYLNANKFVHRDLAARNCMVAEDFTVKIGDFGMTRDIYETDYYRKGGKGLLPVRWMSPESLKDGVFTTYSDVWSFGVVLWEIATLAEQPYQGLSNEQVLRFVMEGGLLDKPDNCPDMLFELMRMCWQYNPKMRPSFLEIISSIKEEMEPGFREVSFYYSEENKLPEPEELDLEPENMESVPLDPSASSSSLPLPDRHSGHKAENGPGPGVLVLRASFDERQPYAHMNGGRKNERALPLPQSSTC

[15] = target: T4, Ephrin type-B receptor 2 (Homo sapiens, UniProt P29323); assay: Inhibition of EphB2
T4 sequence (P29323 whole entry): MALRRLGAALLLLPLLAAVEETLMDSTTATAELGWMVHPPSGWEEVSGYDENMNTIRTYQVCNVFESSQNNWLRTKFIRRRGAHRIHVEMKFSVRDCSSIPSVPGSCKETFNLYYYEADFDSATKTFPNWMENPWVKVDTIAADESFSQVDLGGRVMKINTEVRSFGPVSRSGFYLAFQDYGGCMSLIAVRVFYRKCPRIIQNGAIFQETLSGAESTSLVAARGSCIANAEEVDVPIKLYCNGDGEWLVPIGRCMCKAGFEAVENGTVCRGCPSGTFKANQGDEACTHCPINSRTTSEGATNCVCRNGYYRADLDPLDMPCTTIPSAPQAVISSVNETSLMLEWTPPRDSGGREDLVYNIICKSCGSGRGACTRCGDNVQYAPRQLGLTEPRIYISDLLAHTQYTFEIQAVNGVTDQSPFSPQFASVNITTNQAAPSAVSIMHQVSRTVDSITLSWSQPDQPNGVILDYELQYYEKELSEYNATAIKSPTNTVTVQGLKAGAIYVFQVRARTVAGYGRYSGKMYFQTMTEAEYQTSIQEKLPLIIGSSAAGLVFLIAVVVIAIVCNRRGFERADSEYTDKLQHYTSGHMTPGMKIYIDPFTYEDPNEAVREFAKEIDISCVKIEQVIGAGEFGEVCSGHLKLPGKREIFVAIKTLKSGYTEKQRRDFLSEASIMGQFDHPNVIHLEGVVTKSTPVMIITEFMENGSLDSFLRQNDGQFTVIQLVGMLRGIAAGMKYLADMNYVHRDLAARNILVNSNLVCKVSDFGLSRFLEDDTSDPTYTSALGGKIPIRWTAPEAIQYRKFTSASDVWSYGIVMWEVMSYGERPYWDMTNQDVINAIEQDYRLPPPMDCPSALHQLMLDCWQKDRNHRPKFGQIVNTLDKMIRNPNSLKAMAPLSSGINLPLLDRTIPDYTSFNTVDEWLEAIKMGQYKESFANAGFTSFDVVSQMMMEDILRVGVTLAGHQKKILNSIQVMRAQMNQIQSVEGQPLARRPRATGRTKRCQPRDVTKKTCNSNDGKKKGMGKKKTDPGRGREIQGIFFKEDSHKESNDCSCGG

[16] = AUC in Han Wistar rat at 5 umol/kg, po; assay type: ADME, organism-based; details: plasma
[17] = target: Cyclin-dependent kinase 2 (Homo sapiens, UniProt P24941); assay: Inhibition of CDK2
[18] = Inhibition of FGF
[19] = tested on: Plasma; assay: Protein binding in Han Wistar rat plasma assessed as free drug; assay type: ADME, cell-free
[20] = target: Focal adhesion kinase 1 (Homo sapiens, UniProt Q05397); assay: Inhibition of FAK
Sequence of Focal adhesion kinase 1 (Q05397 whole entry): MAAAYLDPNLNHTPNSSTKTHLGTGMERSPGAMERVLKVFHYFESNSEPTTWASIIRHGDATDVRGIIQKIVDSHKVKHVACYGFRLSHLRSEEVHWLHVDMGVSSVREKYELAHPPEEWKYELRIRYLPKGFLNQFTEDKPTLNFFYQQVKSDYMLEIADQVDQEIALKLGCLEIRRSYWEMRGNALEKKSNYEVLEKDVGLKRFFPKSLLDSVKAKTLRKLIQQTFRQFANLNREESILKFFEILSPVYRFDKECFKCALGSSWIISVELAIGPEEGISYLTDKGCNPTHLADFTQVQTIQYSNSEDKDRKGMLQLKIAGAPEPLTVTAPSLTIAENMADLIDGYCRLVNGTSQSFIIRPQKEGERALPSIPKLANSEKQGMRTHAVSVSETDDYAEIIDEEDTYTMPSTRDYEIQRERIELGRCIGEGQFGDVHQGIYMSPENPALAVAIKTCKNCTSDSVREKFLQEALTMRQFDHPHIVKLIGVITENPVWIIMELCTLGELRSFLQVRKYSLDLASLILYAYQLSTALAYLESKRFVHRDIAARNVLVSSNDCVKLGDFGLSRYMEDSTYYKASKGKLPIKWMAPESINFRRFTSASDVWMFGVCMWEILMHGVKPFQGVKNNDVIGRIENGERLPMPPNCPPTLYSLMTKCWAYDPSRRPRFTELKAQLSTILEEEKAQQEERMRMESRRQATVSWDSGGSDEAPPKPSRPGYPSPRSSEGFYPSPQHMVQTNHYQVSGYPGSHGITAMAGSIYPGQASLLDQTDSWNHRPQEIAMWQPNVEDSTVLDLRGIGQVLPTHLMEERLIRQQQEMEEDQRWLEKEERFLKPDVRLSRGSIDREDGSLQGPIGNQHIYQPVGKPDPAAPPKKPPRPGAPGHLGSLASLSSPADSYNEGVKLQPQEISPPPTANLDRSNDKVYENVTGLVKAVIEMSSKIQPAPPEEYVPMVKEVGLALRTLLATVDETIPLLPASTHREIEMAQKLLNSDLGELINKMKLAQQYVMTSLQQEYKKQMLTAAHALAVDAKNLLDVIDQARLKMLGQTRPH

[21] = Volume of distribution at steady state in Han Wistar rat at 5 umol/kg, po or 0.5 umol/kg, iv; assay type: ADME, organism-based; details: in vivo, read-out: Vdss
[22] = target: T5, Tyrosine-protein kinase ZAP-70 (Homo sapiens, UniProt P43403); assay: Inhibition of ZAP70
T5 sequence (P43403 whole entry): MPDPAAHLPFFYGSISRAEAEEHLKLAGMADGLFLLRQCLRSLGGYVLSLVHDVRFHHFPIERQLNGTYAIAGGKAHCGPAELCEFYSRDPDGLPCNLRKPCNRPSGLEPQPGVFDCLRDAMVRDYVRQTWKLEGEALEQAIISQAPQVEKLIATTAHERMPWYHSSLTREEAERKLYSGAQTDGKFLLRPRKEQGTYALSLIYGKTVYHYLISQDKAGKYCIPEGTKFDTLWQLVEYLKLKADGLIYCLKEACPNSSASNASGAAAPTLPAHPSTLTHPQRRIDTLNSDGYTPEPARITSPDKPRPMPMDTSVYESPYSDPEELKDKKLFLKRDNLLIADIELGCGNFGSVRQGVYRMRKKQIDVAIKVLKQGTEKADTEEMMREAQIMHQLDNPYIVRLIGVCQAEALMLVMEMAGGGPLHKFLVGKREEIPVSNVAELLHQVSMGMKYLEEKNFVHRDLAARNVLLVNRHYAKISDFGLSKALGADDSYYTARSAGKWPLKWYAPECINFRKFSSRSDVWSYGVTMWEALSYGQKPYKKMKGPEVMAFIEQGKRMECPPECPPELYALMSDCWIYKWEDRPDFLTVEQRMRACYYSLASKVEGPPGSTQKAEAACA

[23] = Bioavailability in Han Wistar rat at 5 umol/kg, po; assay type: ADME, organism-based; details: in vivo
[24] = target: Proto-oncogene tyrosine-protein kinase Src (Homo sapiens, UniProt P12931); assay: Inhibition of Src
Sequence of Proto-oncogene tyrosine-protein kinase Src (P12931 2-536 limits assumed): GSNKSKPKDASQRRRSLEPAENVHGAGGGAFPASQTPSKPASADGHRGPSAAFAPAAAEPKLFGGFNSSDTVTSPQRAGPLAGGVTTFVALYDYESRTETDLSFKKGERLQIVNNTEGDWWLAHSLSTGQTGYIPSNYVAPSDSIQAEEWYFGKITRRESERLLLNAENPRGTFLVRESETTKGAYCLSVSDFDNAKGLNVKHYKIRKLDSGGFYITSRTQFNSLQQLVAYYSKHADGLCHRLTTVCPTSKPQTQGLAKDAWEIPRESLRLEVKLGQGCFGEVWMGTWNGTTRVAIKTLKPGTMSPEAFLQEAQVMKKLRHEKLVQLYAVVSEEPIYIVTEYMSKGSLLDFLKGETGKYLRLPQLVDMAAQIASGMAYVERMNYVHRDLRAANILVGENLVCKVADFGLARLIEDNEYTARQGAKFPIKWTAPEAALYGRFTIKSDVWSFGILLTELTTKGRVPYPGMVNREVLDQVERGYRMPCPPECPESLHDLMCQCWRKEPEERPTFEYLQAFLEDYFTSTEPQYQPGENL

- IC50 [1]: 1.25 µM
SMILES: N#Cc1ccc(Nc2nccc(Nc3c(Cl)ccc4c3OCO4)n2)cc1

- IC50 [1]: 1.33 µM
SMILES: Clc1cccc(Nc2nccc(Nc3c(Cl)ccc4c3OCO4)n2)c1

SMILES: Fc1ccc(Nc2nccc(Nc3c(Cl)ccc4c3OCO4)n2)cc1
- IC50 [1]: 2.3 µM

- IC50 [1]: 0.64 µM
SMILES: COc1cccc(Nc2nccc(Nc3c(Cl)ccc4c3OCO4)n2)c1

- IC50 [1]: 5 µM
SMILES: Fc1ccccc1Nc1nccc(Nc2c(Cl)ccc3c2OCO3)n1

- IC50 [1]: 1.55 µM
SMILES: Clc1ccc2c(c1Nc1ccnc(Nc3ccccc3)n1)OCO2

- IC50 [1]: 35.5 µM
SMILES: NS(=O)(=O)c1ccccc1Nc1nccc(Nc2c(Cl)ccc3c2OCO3)n1

- IC50 [1]: 2.96 µM
SMILES: COc1cc(Nc2ncnc(Nc3c(Cl)ccc4c3OCO4)n2)cc(OC)c1OC

- IC50 [1]: 41 µM
SMILES: CS(=O)(=O)c1ccccc1Nc1nccc(Nc2c(Cl)ccc3c2OCO3)n1

- IC50 [1]: 0.46 µM
SMILES: Cc1cccc(Nc2nccc(Nc3c(Cl)ccc4c3OCO4)n2)c1

- IC50 [1]: 1.6 µM
SMILES: Cc1ccc(Nc2nccc(Nc3c(Cl)ccc4c3OCO4)n2)cc1

- IC50 [1]: 20.5 µM
SMILES: N#Cc1ccccc1Nc1nccc(Nc2c(Cl)ccc3c2OCO3)n1

- IC50 [2]: 27.1 µM
- IC50 [3]: 10.7 µM
- IC50 [4]: > 30 µM
- IC50 [5]: > 30 µM
- IC50 [6]: > 30 µM
- IC50 [7]: > 30 µM
- logD [8]: 3.13
- clearance [9]: 6.1 mL/min/kg
- solubility [10]: 30 µM (≈ 12.6 µg/mL)
- IC50 [11]: > 30 µM
- IC50 [12]: 20.5 µM
- half-life [13]: 5.3 h
- IC50 [14]: > 30 µM
- IC50 [15]: 0.05 µM
- AUC [16]: 4 µM·h
- IC50 [17]: 17.6 µM
- IC50 [18]: > 30 µM
- Fu [19]: 0.74%
- IC50 [20]: 19.7 µM
- Vd [21]: 0.5 L/kg
- IC50 [22]: > 30 µM
- bioavailability [23]: 30%
- IC50 [24]: < 0.1 µM
SMILES: CS(=O)(=O)c1cccc(Nc2nccc(Nc3c(Cl)ccc4c3OCO4)n2)c1
